Results as given in patent publication US20250011311A1, “AMIDO HETEROAROMATIC COMPOUNDS” (AstraZeneca AB, priority 2022, published 2025).

Assays:
[1] = target: recombinant 17bHSD13 (N2-K300) (Homo sapiens (Human), UniProt Q7Z5P4); experiment: In Vitro 17bHSD13 Enzyme Assay; format: biochemical; details: 80 nM 17bHSD13, 0.5 mM NAD, 20 μM Estradiol, 2.5 h; estradiol to estrone by LC-MS/MS
Protocol: In Vitro 17bHSD13 Enzyme Assay
The enzyme reaction was initiated by addition, using CERTUS-FLEX dispenser (GYGER), of 20 μl of substrate solution containing NAD (SIGMA, N1511) and Estradiol (SIGMA, E8875). […] Final assay conditions were 80 nM of 17bHSD13, 0.5 mM of NAD, 20 μM Estradiol and various concentrations of compound in buffer (5 mM EDTA (TEKNOVA E0306), 0.01% DDM (AFFYMETRIX D310) in 50 mM Tris-Cl, pH 7.4).
(§1) SCIEX LC-MS/MS system: Sample was injected with CTC analytical injector, SHIMATZU LC pumps LC20 and analyzed on the SCIEX API 5000 LCMSMS system with the following settings. […] The mobile phases consist of A (water with 0.2% formic acid) and B (acetonitrile with 0.2% formic acid). The LC gradient profile is as follows: 50% B during 0 to 0.5 min, a linear increase to 100% B during 0.5 to 1 min, hold at 100% B during 1 to 1.6 min then back to 50% B from 1.6 to 2 min. […] Detection was performed on a API 5000 LC/MS/MS system with a triple quadrupole mass spectrometer, a TURBO V ion source, in multiple reaction monitoring (MRM) mode at positive polarity with APCI probe. […] The dwell times were 100 ms for each transition and a depolarization and collision energy of 100 and 40, respectively. Data from MS signals was using area under curve (AUC). Ratio=Estrone/(Estrone+Estradiol)
(§2) […] […] was used for curve fitting and calculation of IC50 values.
(§3) Compound effect was calculated with the formula below;
(§4) where X represents the effect in the presence of test compound, min is DMSO and max is the maximum inhibition of enzyme using a known inhibitor as control.

[2] = target: over expressed HSD17β13 in HEK293S cells (Homo sapiens (Human), UniProt Q7Z5P4); experiment: In Vitro 17bHSD13 Cell Assay; format: cell-based; details: HEK293S cells over expressing HSD17β13; estradiol to estrone conversion, 18 h, LC-MS/MS; read-out: 17bHSD1713 Cell assay IC50
Protocol: In Vitro 17bHSD13 Cell Assay
Inhibition of 17bHSD13 was measured in a cell-based assay with over expressed HSD17β13 in HEK293S cells, measuring estradiol to estrone conversion by LCMS/MS.
Samples were analyzed using LC-MS/MS.
as §1, with “analysed” for “analyzed”
as §2, §3, §4

[3] = target: over expressed HSD17β9 in HEK293S cells (Homo sapiens (Human), UniProt Q92781); experiment: In Vitro 17bHSD9 Cell Assay; format: cell-based; details: HEK293S cells over expressing HSD17β9; retinol to retinal conversion, 18 h, LC-MS/MS; read-out: 17bHSD9 Cell assay IC50
Protocol: In Vitro 17bHSD9 Cell Assay
Inhibition of 17bHSD9 was measured in a cell-based assay with over expressed HSD17β9 in HEK293S cells, measuring retinol to retinal conversion by LCMS/MS.
Cells were plated in 384 well plates (GREINER CELL culture plate 384w black/clear Poly-D-Lysine) at 10 K c/w in 30 μl of culture media (DMEM with GLUTAMAX plus 10% FBS). […] After 18 h of cell culturing for 20 μl of media was transferred using BRAVO dispensing robot (AGILENT) to a GREINER PP 384 well plate (781280) and 40 μl of 50% acetonitrile was added. Samples were analyzed using LC-MS/MS.
SCIEX LC-MS/MS system: Sample was injected with CTC analytical injector, SHIMATZU LC pumps LC20 and analysed on the SCIEX API 5000 LCMSMS system with the following settings. Samples were chromatographed on a WATERS, symmetry, C8, 3.5 μm, 2.1×50 mm) column at constant flow rate of 0.5 mL/min. The mobile phases consists of A (water with 0.2% formic acid) and B (acetonitrile with 0.2% formic acid). The LC gradient profile is as follows: 50% B during 0 to 0.1 min, a linear increase to 100% B during 0.1 to 0.8 min, hold at 100% B during 0.8 to 1.5 min then back to 50% B from 1.5 to 1.6 min and hold during run time. The run time was 2 min with retention times of approximately 1.54 and 1.62 min for Retinol and Retinal, respectively. Detection was performed on a API 5000 LC/MS/MS system with a triple quadrupole mass spectrometer, a TURBO V ion source, in multiple reaction monitoring (MRM) mode at positive polarity with ESI probe. The MRM pairs were m/z 269.3 to m/z 93.0 and m/z 285.2 to 161.0. for Retinol and Retinal, respectively. The dwell times were 100 ms for each transition and a depolarization and collision energy of 50 and 25, respectively. Data from MS signals was using area under curve (AUC). Ratio=Retinal/(Retinal+Retinol).
as §2, §3, §4

[4] = target: recombinant 17bHSD4 (M1-N311) (Homo sapiens (Human), UniProt P51659); experiment: In Vitro 17bHSD4 Enzyme Assay; format: biochemical; details: 40 nM 17bHSD4, 0.125 mM NAD, 15 μM Estradiol, 1.5 h; NADH fluorescence; read-out: 17HSD17b4 Enzyme assay IC50
Protocol: In Vitro 17bHSD4 Enzyme Assay
10 concentration of compounds (0.2 μl) in DMSO was added to GREINER FLUOTRAC 200 384 well plate (781076) using ECHO dispensing (BECKMAN COULTER). 80 nl of 10 mM Estradiol (SIGMA, E8875) was added using Echo dispensing. The enzyme reaction was initiated by addition, using MULTIDROP COMBI dispensing (THERMO FISHER), of 40 μl of a mix containing recombinant 17bHSD4 (M1-N311) and NAD. Final assay conditions were 40 nM of 17bHSD4, 0.125 mM of NAD, 15 μM Estradiol and various concentrations of compound in buffer (5 mM EDTA (TEKNOVA E0306), 0.01% DDM (AFFYMETRIX D310) in 50 mM Tris-Cl, pH 7.4). After each addition plates were centrifuged for 1 min at 150×g (EPPENDORF, 5810R, A-4-81). NADH formation was measured by fluorescence intensity (FI) (Ex360/Em460) at time zero (to) and at 1.5 h (t1) in a PHERASTAR FSX (BMG LABTECH). FI for each sample was calculated as FI at t1 minus FI at t0.
as §2, §3, §4

Sequence of over expressed HSD17β13 in HEK293S cells (Q7Z5P4 20-300): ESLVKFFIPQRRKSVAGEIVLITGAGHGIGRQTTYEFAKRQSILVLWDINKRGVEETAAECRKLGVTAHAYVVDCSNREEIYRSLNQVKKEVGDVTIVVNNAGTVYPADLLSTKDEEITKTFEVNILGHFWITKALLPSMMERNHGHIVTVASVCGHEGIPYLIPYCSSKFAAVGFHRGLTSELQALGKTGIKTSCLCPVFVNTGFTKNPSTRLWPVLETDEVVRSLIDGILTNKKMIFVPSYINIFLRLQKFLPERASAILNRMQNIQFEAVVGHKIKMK
Sequence of recombinant 17bHSD13 (N2-K300) (Q7Z5P4 2-300): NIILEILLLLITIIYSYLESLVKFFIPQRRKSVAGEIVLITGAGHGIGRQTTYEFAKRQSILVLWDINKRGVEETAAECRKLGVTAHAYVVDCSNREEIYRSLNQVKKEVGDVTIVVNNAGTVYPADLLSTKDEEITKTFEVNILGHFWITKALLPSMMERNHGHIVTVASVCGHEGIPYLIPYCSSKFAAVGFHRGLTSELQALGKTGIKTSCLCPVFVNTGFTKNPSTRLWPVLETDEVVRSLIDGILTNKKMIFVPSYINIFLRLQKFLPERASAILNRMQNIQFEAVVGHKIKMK
Sequence of recombinant 17bHSD4 (M1-N311) (P51659 1-311): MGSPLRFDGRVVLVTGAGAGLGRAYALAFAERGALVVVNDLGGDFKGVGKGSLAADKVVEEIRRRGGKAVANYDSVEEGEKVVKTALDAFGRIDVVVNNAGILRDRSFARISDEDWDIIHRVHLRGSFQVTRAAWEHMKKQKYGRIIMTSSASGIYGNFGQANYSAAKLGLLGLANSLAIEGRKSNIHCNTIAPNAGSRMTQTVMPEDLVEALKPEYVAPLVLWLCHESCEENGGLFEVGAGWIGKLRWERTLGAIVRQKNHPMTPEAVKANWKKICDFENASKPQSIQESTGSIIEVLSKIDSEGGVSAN
Sequence of over expressed HSD17β9 in HEK293S cells (Q92781 whole entry): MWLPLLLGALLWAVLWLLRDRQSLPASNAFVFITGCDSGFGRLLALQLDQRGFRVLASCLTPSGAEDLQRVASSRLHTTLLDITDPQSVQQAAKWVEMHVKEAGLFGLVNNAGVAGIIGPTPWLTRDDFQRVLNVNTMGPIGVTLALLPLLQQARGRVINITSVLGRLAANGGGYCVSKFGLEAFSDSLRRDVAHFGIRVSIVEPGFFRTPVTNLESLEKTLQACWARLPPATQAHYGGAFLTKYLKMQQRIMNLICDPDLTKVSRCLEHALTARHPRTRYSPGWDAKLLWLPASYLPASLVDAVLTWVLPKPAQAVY

| IC50 [1] | IC50 [2] | IC50 [3] | IC50 [4] | Compound |
| --- | --- | --- | --- | --- |
| 0.062 µM | 1.12 µM | > 50 µM | 19 µM | O=C(c1noc(-c2cc(F)c(F)c(O)c2F)n1)N1CCN(c2nc3ccccc3o2)CC1 [Example 72, (4-(Benzo[d]oxazol-2-yl)piperazin-1-yl)(5-(2,4,5-trifluoro-3-hydroxyphenyl)-1,2,4-oxadiazol-3-yl)methanone] |
| 0.046 µM | 0.96 µM | 15.8 µM | 3 µM | O=C(c1noc(-c2cc(F)c(F)c(O)c2F)n1)N1CC=C(c2ccccc2)CC1 [Example 62, (4-Phenyl-3,6-dihydropyridin-1(2H)-yl)(5-(2,4,5-trifluoro-3-hydroxyphenyl)-1,2,4-oxadiazol-3-yl)methanone] |
| 0.581 µM | > 50 µM | > 50 µM | > 50 µM | CC[C@H]1CN(C(=O)c2noc(-c3cc(F)c(F)c(O)c3F)n2)CC(=O)N1 [Example 34, (S)-6-Ethyl-4-(5-(2,4,5-trifluoro-3-hydroxyphenyl)-1,2,4-oxadiazole-3-carbonyl)piperazin-2-one] |
| 0.198 µM | 0.3 µM | > 50 µM | 19.8 µM | COc1ccccc1N1CCN(C(=O)c2noc(-c3cc(F)c(F)c(O)c3F)n2)CC1 [Example 84, (4-(2-Methoxyphenyl)piperazin-1-yl)(5-(2,4,5-trifluoro-3-hydroxyphenyl)-1,2,4-oxadiazol-3-yl)methanone] |
| 0.048 µM | 0.27 µM | 11.2 µM | 5.6 µM | O=C(c1noc(-c2cc(F)c(F)c(O)c2F)n1)N1CCc2ccccc2C1 [Example 64, (3,4-Dihydroisoquinolin-2(1H)-yl)(5-(2,4,5-trifluoro-3-hydroxyphenyl)-1,2,4-oxadiazol-3-yl)methanone] |
| 0.047 µM | 0.61 µM | 25 µM | 6.7 µM | O=C(c1cc(-c2cc(F)c(F)c(O)c2F)on1)N1CC[C@H](c2ccc(Cl)cc2)C1 [Example 8, (R)-(3-(4-Chlorophenyl)pyrrolidin-1-yl)(5-(2,4,5-trifluoro-3-hydroxyphenyl)isoxazol-3-yl)methanone] |
| 0.392 µM | 0.15 µM | > 50 µM | > 50 µM | C[C@H]1CN(C(=O)c2noc(-c3cc(F)c(F)c(O)c3F)n2)C[C@H](C)O1 [Example 54, ((2S,6S)-2,6-Dimethylmorpholino)(5-(2,4,5-trifluoro-3-hydroxyphenyl)-1,2,4-oxadiazol-3-yl)methanone] |
| 0.466 µM | 0.51 µM | 4.1 µM | > 50 µM | O=C(c1noc(-c2cc(F)c(F)c(O)c2F)n1)N1CCOC2(CCCC2)C1 [Example 45, (6-Oxa-9-azaspiro[4.5]decan-9-yl)(5-(2,4,5-trifluoro-3-hydroxyphenyl)-1,2,4-oxadiazol-3-yl)methanone] |
| 1.75 µM | 1.48 µM | > 50 µM | > 50 µM | O=C(c1noc(-c2cc(F)c(F)c(O)c2F)n1)N1CCOCC1 [Example 39, Morpholino(5-(2,4,5-trifluoro-3-hydroxyphenyl)-1,2,4-oxadiazol-3-yl)methanone] |
| 1.01 µM | 0.24 µM | > 50 µM | > 50 µM | C[C@@H]1CN(C(=O)c2nc(-c3cc(F)c(F)c(O)c3F)no2)C[C@H](C)O1 [Example 110, ((2R,6S)-2,6-Dimethylmorpholino)(3-(2,4,5-trifluoro-3-hydroxyphenyl)-1,2,4-oxadiazol-5-yl)methanone] |
| 1.67 µM | 0.54 µM | > 50 µM | > 50 µM | O=C(c1noc(-c2cc(F)c(F)c(O)c2F)n1)N1CCO[C@@H](CF)C1 [Example 49, (R)-(2-(Fluoromethyl)morpholino)(5-(2,4,5-trifluoro-3-hydroxyphenyl)-1,2,4-oxadiazol-3-yl)methanone] |
| 1.03 µM | 1.32 µM | > 50 µM | > 50 µM | C[C@@H]1COC[C@H](C)N1C(=O)c1noc(-c2cc(F)c(F)c(O)c2F)n1 [Example 36, ((3R,5S)-3,5-Dimethylmorpholino)(5-(2,4,5-trifluoro-3-hydroxyphenyl)-1,2,4-oxadiazol-3-yl)methanone] |
| 1.69 µM | 2.69 µM | > 50 µM | > 50 µM | C[C@@H]1CCN(C(=O)c2noc(-c3cc(F)c(F)c(O)c3F)n2)CCO1 [Example 51, (R)-(7-Methyl-1,4-oxazepan-4-yl)(5-(2,4,5-trifluoro-3-hydroxyphenyl)-1,2,4-oxadiazol-3-yl)methanone] |
| 0.432 µM | 0.19 µM | 11.2 µM | 38.4 µM | O=C(c1noc(-c2cc(F)c(F)c(O)c2F)n1)N1CCCCC1 [Example 44, Piperidin-1-yl(5-(2,4,5-trifluoro-3-hydroxyphenyl)-1,2,4-oxadiazol-3-yl)methanone] |
